Assays:
[1] = system: dextran sodium sulfate (DSS)-induced colitis; experiment: Dextran sodium sulfate (DSS)-induced colitis model, disease activity index (DAI); format: in vivo, mice (C57Bl/6NHsd); conditions: for anti-IBD activity: disease activity index (DAI): once daily oral
Procedure: (§1) Colitis was induced using either 2.5% DSS (FIG. 1A, FIG. 1B, and FIG. 1C) or 4.0% DSS (FIG. 1D, FIG. 1E, FIG. 1F, FIG. 1G, and FIG. 1H) resulting in the characteristic development of diarrhea, rectal bleeding and body weight loss. These parameters were evaluated daily, scored and summated to compute a disease activity index (DAI). Mice received once daily oral treatment with test article or vehicle beginning on Study Day 0 and continuing through Study Day 7. […] All data depicted as mean+/−SEM. 2-way ANOVA, *p<0.05, **p<0.01, ***p<0.001;
as §1, with “using” for “using either 2.5% DSS (FIG. 1A, FIG. 1B, and FIG. 1C) or”, “DSS” for “DSS (FIG. 1D, FIG. 1E, FIG. 1F, FIG. 1G, and FIG. 1H)”, “6.” for “7.”
(§2) Six-week old male C57Bl/6NHsd mice were challenged with 4.0% DSS in drinking water from Study Day 0-5 followed by exposure to freshwater, inducing severe acute colitis. Oral (S)-LTP592 was administered once daily beginning on study day 0 at 1 mg/kg, 10 mg/kg and 100 mg/kg 2-PMPA molar equivalent doses. (FIG. 4A) 100 mg/kg eq. […] (S)-LTP592, while GCPII was only 40% inhibited at the non-efficacious dose of 1 mg/kg eq. (n=8/group; **p<0.01 2-tailed t-test). (FIG. 4C) Strikingly, 100 mg/kg eq. […] (FIG. 4D, FIG. 4E, and FIG. 4F) Efficacy of 100 mg/kg eq. (S)-LTP592 in the DSS-colitis model was driven by improvements in (FIG. 4C) stool score and (FIG. 4D) bleeding score (n=15/group; ***p<0.001, *p<0.05 2-way ANOVA);
(§3) Six-week old male C57Bl/6NHsd mice were challenged with 4.0% DSS in drinking water from study day 0-6 followed by exposure to freshwater. Oral (S)-LTP592 was administered once daily beginning on study day 0 at 100 mg/kg 2-PMPA molar equivalent doses. (FIG. 5A, FIG. 5B, and FIG. 5C) 100 mg/kg eq. […] (FIG. 5D, FIG. 5E, FIG. 5F, and FIG. 5G) A subset of mice (n=8/group) were euthanized on study day 5, prior to fulminant colitis. Their colons were harvested and processed for flow cytometry. […] All DSS-induced changes in myeloid inflammatory cell populations were attenuated by (S)-IBD3540 treatment (n=8-9/group, **p<0.01, *p<0.05, 2-tailed t-test).
Six- to eight-week-old male C57BM6NHsd mice were acquired from Harlan Laboratories/Envigo (Indianapolis, IN). Animals were housed in the Johns Hopkins animal facility under controlled temperature (25° C.) and photoperiod (12-hour-light/12-hour-dark cycle) with access to standard diet and water (or specified DSS-containing drinking water) ad libitum. All animal studies were approved by the Animal Care and Use Committee of Johns Hopkins University, Baltimore, MD and adhered to all of the applicable institutional and governmental guidelines for the humane treatment of laboratory animals. Mice were housed 4-5 per cage and allowed to acclimate to their environment for at least 5 days before inclusion in experiments. Mice (n=5-30/group) were randomized by body weight into equivalent experimental groups: (a) DSS with vehicle or (b) DSS with test article. Acute colitis was induced by administration of 2.5%-4.0% (w/v) DSS (MW 40,000-50,000; Affymetrix Santa Clara, CA) in the drinking water for 5 days, followed by exposure to freshwater for two days. Daily oral (PO) dosing of vehicle or test article was initiated on study day 0 and was continued until sacrifice on study day 7. […]

recombinant human GCPII = recombinant human GCPII (Homo sapiens, UniProt Q04609); experiment: GCPII inhibition, radiosubstrate based assay; format: biochemical; conditions: GCPII IC50 ratio, (S)- vs (R)-enantiomer
Procedure: FIG. 3A, FIG. 3B, FIG. 3C, and FIG. 3D show IC50 values for selected bile acid GCPII inhibitor conjugates. IC50s were determined for selected inhibitors using a previously described radiosubstrate based assay employing recombinant human GCPII. Rojas et al., 2002.
Glutamate Carboxypeptidase II (GCPII) is a metallopeptidase that catalyzes the hydrolysis of N-acetylated aspartate-glutamate (NAAG) to N-acetyl aspartate (NAA) and glutamate and cleaves terminal glutamate moieties sequentially from folate polyglutamate (Ristau et al., 2013; Mesters et al, 2006; Slusher et al, 2013). In certain embodiments, the presently disclosed compounds of formula (I) are GCPII inhibitors. As used herein, a GCPII inhibitor is a molecule that decreases or inhibits the activity of GCPII. The modulation of the activity of GCPII may be detected by use of an assay for the intrinsic N-acetylated alpha-linked acidic dipeptidase (AALADase) activity of GCPII (Tang et al, 2003; Robinson et al 1987: Lupoid et al., 2002; U.S. Patent App. Pub. No. 20110064657). Inhibition curves may be determined using semi-log plots and IC50 values determined at the concentration at which enzyme activity was inhibited by 50%.

[2] = system: myeloid inflammatory cell populations in colon; experiment: Flow cytometry of colonic lamina propria mononuclear cells in DSS colitis; format: in vivo, mice; conditions: 4.0% DSS, 100 mg/kg eq. oral, study day 5
Procedure: as §3
On DSS study day 5, a subset of mice (n=8-9/group) were euthanized and colons were processed for flow cytometry. Specifically, the distal 3 cm of colon was separated, mesenteric fat dissected away and intestinal contents removed. Then colon was transected longitudinally, washed with PBS, and minced thoroughly. Minced colon tissues were transferred into 5 ml HBSS with 10 mM HEPES containing 5% FBS and 0.2 mg/ml collagenase D (Sigma). Tissues were digested at 37° C. for 20 min with constant agitation (250 r.p.m.), then vigorously vortexed for 20 s. The resulting cell suspension containing LPMCs was filtered through a 70-μm nylon cell strainer and washed with 10 ml PBS. […]

GCPII = biological target: T1, GCPII (Mus musculus, UniProt O35409); experiment: GCPII enzymatic activity in murine colon tissue (radioenzymatic assay); format: in vivo, mice; conditions: colon collected 4-hour post dose on study day 6
T1 construct: from tissue; host or cells: mouse proximal colon
Procedure: as §2
A 5-mm length location-matched segment of proximal colon was harvested and flash-frozen following euthanasia on study day 6 of DSS-induced colitis, 4-hours after the final dose with vehicle or compound. Glutamate carboxypeptidase activity was measured using a radioenzymatic assay that was optimized and described previously. Rojas et al., 2002; Robinson et al., 1987.

[3] = 2.5% or 4.0% DSS, Study Day 0-7, 10 to 100 mg/kg 2-PMPA molar equivalent dose, DAI on Study Days 6 and 7
[4] = 4.0% DSS, 100 mg/kg eq. oral, study day 6
[5] = 4.0% DSS, Study Day 0-6, DAI on Study Days 4 through 6

T1 sequence (O35409 whole entry): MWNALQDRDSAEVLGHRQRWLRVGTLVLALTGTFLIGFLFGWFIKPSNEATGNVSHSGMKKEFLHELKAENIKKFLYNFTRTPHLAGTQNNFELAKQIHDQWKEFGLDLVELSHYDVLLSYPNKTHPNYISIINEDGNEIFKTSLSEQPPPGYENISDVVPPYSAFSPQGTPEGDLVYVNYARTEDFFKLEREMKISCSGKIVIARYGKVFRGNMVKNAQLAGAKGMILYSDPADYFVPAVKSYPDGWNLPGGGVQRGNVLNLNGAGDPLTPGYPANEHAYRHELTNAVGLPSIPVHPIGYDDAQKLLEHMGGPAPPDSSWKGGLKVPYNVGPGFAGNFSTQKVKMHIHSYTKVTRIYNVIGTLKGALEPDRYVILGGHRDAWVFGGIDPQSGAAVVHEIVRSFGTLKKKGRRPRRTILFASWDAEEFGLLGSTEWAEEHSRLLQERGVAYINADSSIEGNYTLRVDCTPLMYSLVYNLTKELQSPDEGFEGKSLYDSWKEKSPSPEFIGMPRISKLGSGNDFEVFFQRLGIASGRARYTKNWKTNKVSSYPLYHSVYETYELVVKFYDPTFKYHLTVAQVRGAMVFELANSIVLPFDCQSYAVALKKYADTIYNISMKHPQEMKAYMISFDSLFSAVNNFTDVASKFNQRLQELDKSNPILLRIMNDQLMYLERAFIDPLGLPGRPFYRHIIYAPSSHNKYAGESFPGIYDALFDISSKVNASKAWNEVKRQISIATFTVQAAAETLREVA
Sequence of recombinant human GCPII (Q04609 whole entry): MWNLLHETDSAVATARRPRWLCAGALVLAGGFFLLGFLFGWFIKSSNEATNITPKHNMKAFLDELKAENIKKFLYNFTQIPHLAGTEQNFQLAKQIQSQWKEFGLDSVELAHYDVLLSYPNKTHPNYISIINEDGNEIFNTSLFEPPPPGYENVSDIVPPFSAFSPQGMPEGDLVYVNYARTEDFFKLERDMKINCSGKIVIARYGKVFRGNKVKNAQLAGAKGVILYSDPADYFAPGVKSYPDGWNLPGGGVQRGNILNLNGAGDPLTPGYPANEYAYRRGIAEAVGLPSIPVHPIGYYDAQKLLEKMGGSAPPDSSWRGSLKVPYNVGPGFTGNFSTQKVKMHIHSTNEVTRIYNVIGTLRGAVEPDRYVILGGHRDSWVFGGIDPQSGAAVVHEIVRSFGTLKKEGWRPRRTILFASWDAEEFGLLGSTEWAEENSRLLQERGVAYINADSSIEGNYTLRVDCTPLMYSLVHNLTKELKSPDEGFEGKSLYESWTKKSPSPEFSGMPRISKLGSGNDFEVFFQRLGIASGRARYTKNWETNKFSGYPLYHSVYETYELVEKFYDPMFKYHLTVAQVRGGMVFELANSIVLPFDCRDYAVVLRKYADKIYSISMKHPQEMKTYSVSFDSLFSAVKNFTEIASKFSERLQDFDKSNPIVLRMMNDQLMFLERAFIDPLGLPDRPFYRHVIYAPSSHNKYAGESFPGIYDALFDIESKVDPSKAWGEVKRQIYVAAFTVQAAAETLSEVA

C[C@H](CCC(=O)OCOC(=O)CCC(CP(=O)(O)O)C(=O)O)C1CCC2C3CC[C@@H]4C[C@H](O)CC[C@]4(C)C3CC[C@@]21C (mixture of isomers) [LTP582, 5-((((4R)-4-((3R,10S,13R)-3-Hydroxy-10,13-dimethylhexadecahydro-1H-cyclopenta[a]phenanthren-17-yl)pentanoyl)oxy)methoxy)-5-oxo-2-(phosphonomethyl)pentanoic acid]
anti-IBD activity: disease activity index (DAI) [1, 3]: inactive

C[C@H](CCC(=O)OCOC(=O)CCC(CP(=O)(O)O)C(=O)O)C1CCC2C3C(C[C@H](O)[C@@]21C)[C@@]1(C)CC[C@@H](O)C[C@H]1C[C@H]3O (mixture of isomers) [LTP588, 5-Oxo-2-(phosphonomethyl)-5-((((4R)-4-((3R,7R,10S,12S,13R)-3,7,12-trihydroxy-10,13-dimethylhexadecahydro-1H-cyclopenta[a]phenanthren-17-yl)pentanoyl)oxy)methoxy) pentanoic acid]
anti-IBD activity: disease activity index (DAI) [1, 3]: inactive

C[C@H](CCC(=O)OCOC(=O)CC[C@H](CP(=O)(O)O)C(=O)O)C1CCC2C3CC[C@@H]4C[C@H](O)CC[C@]4(C)C3C[C@H](O)[C@@]21C (stereo partly drawn) [(S)-LTP592]
potency relative to (R)-LTP592 (recombinant human GCPII): 150 fold | bleeding score ([1]; 4.0% DSS, 100 mg/kg eq. oral): improvements | stool score ([1]; 4.0% DSS, 100 mg/kg eq. oral): improvements | colon histology (scored by a blinded pathologist) [1, 4]: significantly improved | colon length [1, 4]: normalization of colon length | number and depth of ulcerations and degree of inflammatory infiltration [1, 4]: reduced | efficacy in DSS colitis ([1]; 4.0% DSS, oral once daily, 1 mg/kg eq.): non-efficacious | efficacy in DSS colitis ([1]; 4.0% DSS, oral once daily, 10 mg/kg eq.): effective | colitis severity (DAI) ([1]; 4.0% DSS, oral once daily, 100 mg/kg eq., as early as study day 3): significantly decreased | DSS-induced changes in myeloid inflammatory cell populations (CD11b+ white blood cells, neutrophils, monocytes, transitioning monocytes) [2]: attenuated | inhibition of GCPII enzymatic activity in colon tissue (GCPII; 1 mg/kg eq. oral): 40% | inhibition of GCPII enzymatic activity in colon tissue (GCPII; 10 mg/kg eq. oral): > 75% | inhibition of GCPII enzymatic activity in colon tissue (GCPII; 100 mg/kg eq. oral): > 75%

C[C@H](CCNC(=O)CCC(CP(=O)(O)O)C(=O)O)[C@H]1CCC2C3C(CC[C@@]21C)[C@@]1(C)CC[C@@H](O)C[C@H]1C[C@@H]3O (stereo partly drawn) [IS-101-020, 5-(((3R)-3-((3R,7S,10S,13R,17R)-3,7-Dihydroxy-10,13-dimethylhexadecahydro-1H-cyclopenta[a]phenanthren-17-yl)butyl)amino)-5-oxo-2-(phosphonomethyl)pentanoic acid]
anti-IBD activity: disease activity index (DAI) [1, 3]: significant reductions in DAI

C[C@H](CCNC(=O)CCC(CP(=O)(O)O)C(=O)O)[C@H]1CCC2C3CC[C@@H]4C[C@H](O)CC[C@]4(C)C3C[C@H](O)[C@@]21C (stereo partly drawn) [IS-101-077, 5-(((3R)-3-((3R,10S,12S,13R,17R)-3,12-Dihydroxy-10,13-dimethylhexadecahydro-1H-cyclopenta[a]phenanthren-17-yl)butyl)amino)-5-oxo-2-(phosphonomethyl)pentanoic acid]
anti-IBD activity: disease activity index (DAI) [1, 3]: significant reductions in DAI

CC(C)C[C@H](NC(=O)N[C@@H](CCC(=O)OCOC(=O)CC[C@@H](C)[C@H]1CCC2C3CC[C@@H]4C[C@H](O)CC[C@]4(C)C3C[C@H](O)[C@@]21C)C(=O)O)C(=O)O (stereo partly drawn) [IS-102-138, (2S,6S,16R)-6-Carboxy-16-((3R,10S,12S,13R,17R)-3,12-dihydroxy-10,13-dimethylhexadecahydro-1H-cyclopenta[a]phenanthren-17-yl)-2-isobutyl-4,9,13-trioxo-10,12-dioxa-3,5-diazaheptadecanoic acid]
anti-IBD activity: disease activity index (DAI) [1, 5]: significant reductions in DAI

C[C@H](CCC(=O)OCOC(=O)CCC(CP(=O)(O)O)C(=O)O)C1CCC2C3C(CC[C@@]21C)[C@@]1(C)CC[C@@H](O)C[C@H]1C[C@@H]3O (stereo partly drawn) [LTP1054, 5-((((4R)-4-((3R,7S,12S,13R)-3,12-Dihydroxy-10,13-dimethylhexadecahydro-1H-cyclopenta[a]phenanthren-17-yl)pentanoyl)oxy)methoxy)-5-oxo-2-(phosphonomethyl) pentanoic acid]
anti-IBD activity: disease activity index (DAI) [1, 3]: inactive

C[C@H](CCC(=O)OCOC(=O)c1ccc(CC(CCC(=O)NO)C(=O)O)cc1)C1CCC2C3CC[C@@H]4C[C@H](O)CC[C@]4(C)C3C[C@H](O)[C@@]21C (some centres unmarked) [TT-220420]
anti-IBD activity: disease activity index (DAI) [1, 5]: significant reductions in DAI
